Drawing on US11078496B2, “System for F-box hormone receptor regulated protein expression in mammalian cells” (ICAHN SCHOOL OF MEDICINE AT MOUNT SINAI, priority 2016, dated 2021), this text covers effect on proliferation for 1 compound.

The subject of this data set is human ESCs. In words: Proliferation of H9 ESCs under coronatine (growth curves). The format is cell-based. The note with it: H9 cells expressing pJAZ NLS-GFP-OsJAZ^33, 50 μM coronatine vs 0.1% DMSO, counted daily. The text has this:
FIG. 10A is a sequence alignment of O. sativa coronatine-degradable proteins (Tan et al., “Mechanism of Auxin Perception by the TIR1 Ubiquitin Ligase,” Nature 446:640-645 (2007), which is hereby incorporated by reference in its entirety) OsJAZ1 (NP_001064513.1; SEQ ID NO: 4), OsJAZ2 (NP_001049167.1; SEQ ID NO: 5), OsJAZ7 (NP_001063273.1; SEQ ID NO: 6), OsJAZ3 (NP_001049166.1; SEQ ID NO: 7), and A. thaliana AtJAZ1 (NP_564075; SEQ ID NO: 8). Degron sequences used in this study are highlighted and degron names indicated on the right. […] GFP level was analyzed by flow cytometry and % degradation was calculated as described in the Methods. […] FIG. 10F show GFP fluorescence histograms derived from flow cytometric analysis of HEK-293T cells infected with the indicated pJAZ versions, selected and treated with either 0.1% DMSO (“Con”) or 50 μM coronatine (“Cor”). Parental HEK-293T cells were analyzed as a control for background autofluorescence. […] FIG. 10H show the relative median fluorescence of HEK-293T cells infected with pJAZ 7 harboring either GFP-OsJAZ^33 or NLS-GFP-OsJAZ^33. Cells were selected and treated with increasing concentrations of coronatine (“Cor”) and analyzed after 24 hours (left panel), or with 50 μM coronatine for the indicated time periods (right panel). GFP fluorescence was analyzed by flow cytometry. […] Cells were counted daily and growth curves are plotted in FIG. 10K. […]

As to `CC[C@H]1C=C(C(=O)N[C@@]2(C(=O)O)C[C@@H]2CC)[C@H]2CCC(=O)[C@H]2C1` [coronatine, Coronatine], the effect on proliferation result is on record as “does not affect proliferation”.
